The text below walks through data of patent publication US20260008750A1, “COMPOUNDS, COMPOSITIONS, AND METHODS FOR REDUCING PRODUCTION OF TRIMETHYLAMINE” (The Cleveland Clinic Foundation, priority 2022, published 2026).

Where a name gives a salt, the structure may show the parent alone.

The experiment deals with recombinant CutC/D (choline TMA lyase) (Proteus mirabilis, UniProt B4EYG1). The experiment in a line: Choline TMA lyase enzymatic activity assay (d9-choline to d9-TMA) in clarified lysate. It is filed as biochemical, P. mirabilis. Particulars: clarified lysate 5 mg/mL of E. coli expressing cutC/cutD; 300 μM d9-choline; 2 hours at 22° C.; d9-TMA by mass spectrometry. The protocol: Full-length, recombinant CutC/D was expressed through the use of competent E. coli cells transformed with the expression plasmids encoding for the cutC and cutD genes from P. mirabilis as described (Wang Z et al., Cell 2015 Dec. 17; 163(7):1585-95). CutC/D over-expressing cells were grown in nutrient-rich LB medium with the addition of ampicillin (100 μg/mL). The cell pellets were kept on ice and re-suspended in the lysis buffer: 200 mM HEPES, 50 mM NaCl, 10 mM MgCl2, pH 8.0. Clarified lysate was aliquoted and flash frozen for storage at −80° C. until use.
recombinant CutC/D (choline TMA lyase), sequence (B4EYG1 1-1142): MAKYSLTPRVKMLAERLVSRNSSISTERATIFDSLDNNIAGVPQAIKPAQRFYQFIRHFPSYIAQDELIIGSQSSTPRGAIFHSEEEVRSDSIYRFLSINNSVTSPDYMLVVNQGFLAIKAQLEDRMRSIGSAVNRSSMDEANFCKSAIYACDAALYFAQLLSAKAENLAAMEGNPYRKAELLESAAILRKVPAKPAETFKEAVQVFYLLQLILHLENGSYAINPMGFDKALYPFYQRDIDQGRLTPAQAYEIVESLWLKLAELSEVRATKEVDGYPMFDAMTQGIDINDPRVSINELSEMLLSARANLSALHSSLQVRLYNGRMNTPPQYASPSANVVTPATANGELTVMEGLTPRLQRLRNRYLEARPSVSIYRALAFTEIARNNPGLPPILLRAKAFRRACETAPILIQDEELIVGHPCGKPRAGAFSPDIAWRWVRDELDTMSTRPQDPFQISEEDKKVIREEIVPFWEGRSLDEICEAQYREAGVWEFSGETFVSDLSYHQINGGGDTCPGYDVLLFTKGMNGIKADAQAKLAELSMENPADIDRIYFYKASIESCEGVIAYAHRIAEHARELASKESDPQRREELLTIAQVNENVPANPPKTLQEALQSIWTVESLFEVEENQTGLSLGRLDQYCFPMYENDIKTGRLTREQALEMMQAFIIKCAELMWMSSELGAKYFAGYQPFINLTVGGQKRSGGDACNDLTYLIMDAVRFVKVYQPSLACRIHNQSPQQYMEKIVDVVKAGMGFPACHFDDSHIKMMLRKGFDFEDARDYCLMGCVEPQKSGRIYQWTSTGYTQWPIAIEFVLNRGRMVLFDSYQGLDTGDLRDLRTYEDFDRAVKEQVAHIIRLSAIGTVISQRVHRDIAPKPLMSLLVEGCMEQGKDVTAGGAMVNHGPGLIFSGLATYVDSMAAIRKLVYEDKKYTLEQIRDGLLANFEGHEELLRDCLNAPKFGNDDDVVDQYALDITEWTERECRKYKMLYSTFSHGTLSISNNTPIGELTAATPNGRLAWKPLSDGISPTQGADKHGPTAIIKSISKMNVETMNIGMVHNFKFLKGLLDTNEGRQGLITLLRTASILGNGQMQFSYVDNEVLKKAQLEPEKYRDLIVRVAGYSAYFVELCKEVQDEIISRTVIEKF
Choline TMA lyase enzymatic activity assays were conducted to measure the conversion of isotope-labeled do-choline to do-TMA. Upon thawing an aliquot of frozen clarified lysate on ice and gentle mixing, clarified lysate was diluted to 5 mg/mL in lysis buffer and the necessary co-factors were added (final concentration: 1 mM SAM, 10 mM NaDT, and 2 mM NADH). Potential inhibitor compounds (typically dissolved in H2O) were serially diluted (10-fold) and added to individual reaction mixtures (done in triplicate). The mixture was then allowed to incubate for at least 15 minutes at 22° C. before the addition of substrate (300 μM final do-choline) to initiate the reaction, which was carried out for 2 hours at room temperature (22° C.) in the dark in gas tight sealed reaction vials. The reactions were quenched with the addition of 200 μL of 1 M NaOH and 0.5 μM of the internal standard ([^13C3^15N1]TMA), vortexing and placement in ice. d9-TMA production was quantified using mass spectrometry by measuring the peak area ratio of the precursor to product ion transition of d9-TMA (m/z 69→49) to the internal standard [^13C3^15N1]TMA (m/z 64→47).
For `C[N+](C)(CF)CCOC(=O)CN` [Compound 1, 2-(2-Aminoacetoxy)-N-(fluoromethyl)-N,N-dimethylethanaminium dibromide], the IC50 was 3.2 nM.
In the case of `CC(C)[C@H](N)C(=O)OCC[N+](C)(C)CF` [Compound 2, (S)-2-((2-Amino-3-methylbutanoyl)oxy)-N-(fluoromethyl)-N,N-dimethylethanaminium dibromide], the IC50 worked out at 52 nM.
Consider `C[C@H](N)C(=O)OCC[N+](C)(C)CF` [Compound 3, (S)-2-((2-Aminopropanoyl)oxy)-N-(fluoromethyl)-N,N-dimethylethanaminium dibromide], for which the IC50 turned out to be 31 nM.
Regarding `C[N+](C)(CF)CCOC(=O)[C@@H]1CCCN1` [Compound 5, N-(fluoromethyl)-N,N-dimethyl-2-(prolyloxy)ethan-1-aminium chloride hydrochloride], the IC50 worked out at 6.5 nM.
As for `C[N+](C)(CF)CCOC(=O)[C@@H](N)Cc1ccccc1` [Compound 6, 2-((L-phenylalanyl)oxy)-N-(fluoromethyl)-N,N-dimethylethan-1-aminium dibromide], the figure is 18 nM.

For orientation: IC50 means the point on the concentration scale where inhibition reaches its midpoint.
